Results as given in ChEMBL document CHEMBL1806431, “Imidazo[1,2-a]pyridin-3-amines as potential HIV-1 non-nucleoside reverse transcriptase inhibitors” (Bioorg Med Chem, 2011).

Experiments:
[1] = Selectivity index, ratio of CC50 for MAGI-CCR5 cells to IC50 for HIV13B infected in human MAGI-CCR5 cells; type: functional
[2] = Cytotoxicity against human MAGI-CCR5 cells after 48 hrs by MTS cell viability assay
[3] = target: Human immunodeficiency virus type 1 reverse transcriptase (Human immunodeficiency virus 1, UniProt Q72547); test: Inhibition of HIV1 reverse transcriptase assessed as residual enzyme activity at 50 uM after 1 hr by ELISA
[4] = Permeability of the compound at 100 uM after 5 hrs by PAMPA
[5] = test system: Human immunodeficiency virus 1; test: microbe, parasite or virus in culture; type: functional, organism-based; settings: Human immunodeficiency virus 1, 3B, MAGI-CCR5, 48 h

| IC50 [3] | permeability [4] | IC50 [5] | Compound | Ratio CC50/IC50 [1] | CC50 at 48 h [2] |
| --- | --- | --- | --- | --- | --- |
|  | permeable |  | Cc1ccn2c(NC3CCCCC3)c(-c3ccccc3Cl)nc2c1 |  |  |
| 5.39 µM | permeable | 0.64 µM | Cc1ccc2nc(-c3ccccc3Cl)c(NC3CCCCC3)n2c1 | 90 | 57.4 µM |
| 1.55 µM |  | 0.19 µM | Cc1cccc2nc(-c3ccccc3Cl)c(NC3CCCCC3)n12 | 108 | 20.5 µM |
| 6.6 µM | permeable | < 0.63 µM | N#Cc1ccc2nc(-c3ccccc3Cl)c(NC3CCCCC3)n2c1 | >222 | 140 µM |
| 3.47 µM | permeable | 0.18 µM | N#Cc1cccc2nc(-c3ccccc3Cl)c(NC3CCCCC3)n12 | 868 | 156 µM |
| 11.3 µM |  | 1.88 µM | Fc1ccc2nc(-c3ccccc3Cl)c(NC3CCCCC3)n2c1 | 85 | 160 µM |
| 14.5 µM | permeable | 0.84 µM | Clc1ccc2nc(-c3ccccc3Cl)c(NC3CCCCC3)n2c1 | >238 | > 200 µM |
| 3.74 µM | permeable | 0.24 µM | Clc1ccccc1-c1nc2cccc(Cl)n2c1NC1CCCCC1 | 633 | 152 µM |
| 12.2 µM |  | 2.19 µM | Clc1ccccc1-c1nc2ccc(Br)cn2c1NC1CCCCC1 | >91 | > 200 µM |
| 4.62 µM |  | 3.15 µM | Clc1ccccc1-c1nc2cccc(Br)n2c1NC1CCCCC1 | 64 | > 200 µM |
| 18.9 µM |  | 73 µM | Cc1c(Br)ccc2nc(-c3ccccc3Cl)c(NC3CCCCC3)n12 | >3 | > 200 µM |
| 7.52 µM | permeable | 0.6 µM | Clc1ccccc1-c1nc2ccc3ccccc3n2c1NC1CCCCC1 | 243 | 146 µM |
|  | permeable |  | COCCc1ccc(OCC(O)CNC(C)C)cc1 (stereo not given) [METOPROLOL] |  |  |

| Compound | IC50 [3] | permeability [4] | IC50 [5] | Ratio CC50/IC50 [1] | CC50 at 48 h [2] |
| --- | --- | --- | --- | --- | --- |
| Clc1ccccc1-c1nc2ccccn2c1NC1CCCCC1 | 4.4 µM | permeable | 0.41 µM | 147 | 60.4 µM |
| Cc1ccnc2c1NC(=O)c1cccnc1N2C1CC1 [NEVIRAPINE] |  |  | 0.09 µM |  | > 10 µM |
| CC(C)NCC(O)COc1cccc2[nH]ccc12 (stereo not given) [PINDOLOL] |  | permeable |  |  |  |
